# Like-named read-outs stand apart in the source and are kept apart here.
# How the values were obtained:
# [1] = cited from earlier work
# Calu-3 = experiment: In vitro transepithelial transport study across Calu-3 monolayers
# Experimental: (§1) Cells of the human bronchial submucosal gland carcinoma cell line, Calu-3, were grown in DMEM nutrient mixture F-12 HAM supplemented with 10% FBS and 0.5% antibiotic–antimycotic solution [21]. Calu-3 cells were harvested with trypsin-EDTA and seeded on polycarbonate filters (pore size: 0.3 μm, growth area: 0.9 cm^2, 12 wells/plate, Beckton Dickinson Bioscience) at a density of 4.5 × 10^5 cells/well. The culture medium was changed every 2 days. The monolayer was used for in vitro transport studies, 9–10 days after seeding.
# (§2) In transport studies using Caco-2, Calu-3, MDCK, and MucilAir, a transport medium (TM; Hank’s balanced salts solution supplemented with 15 mM glucose and 10 mM HEPES good buffer, pH 7.4) was used. […] The permeability of mannitol across MucilAir was cited from the literature.
# Caco-2 = experiment: In vitro transepithelial transport study across Caco-2 monolayers
# Experimental: (§3) Cells of the human colon adenocarcinoma cell line, Caco-2, were grown in Dulbecco’s Modified Eagle Medium (DMEM) supplemented with 10% fetal bovine serum (FBS), 1% L-glutamine, 1% non-essential amino acid, and 0.5% antibiotic–antimycotic solution [20]. Caco-2 cells were harvested with trypsin-EDTA and seeded on polycarbonate filters (pore size: 0.3 μm, growth area: 0.9 cm^2, 12 wells/plate, Beckton Dickinson Bioscience, Bedford, MA, USA) at a density of 1.8 × 10^5 cells/well. The culture medium was changed every 2 days. The monolayer was used for in vitro transport studies, 17–20 days after seeding.
# as §2
# EpiAirway = experiment: In vitro transepithelial transport study across EpiAirway tissues
# Experimental: Upon arrival, the primary human tracheal/bronchial epithelial cell system, EpiAirway, and the primary human bronchial epithelial cell system, MucilAir, were transferred to the well filled with 0.9 mL assay medium for EpiAirway and 0.7 mL MucilAir culture medium, which are serum free and contain growth factors and phenol red and are supplemented by default with antibiotics (penicillin/streptomycin). Both tissues were subsequently placed in an incubator with 5% CO2 at 37 °C. Both tissues were cultured in an air–liquid interface condition. EpiAirway tissues were used for the transport study following the overnight equilibration in assay medium. The mucous surface of MucilAir tissues was washed with 0.2 mL culture medium 2 days before the experiment in order to adjust the mucous level of each well. The permeation experiment using EpiAirway and MucilAir was conducted according to the manufacturer’s instructions.
# In the transport study using EpiAirway, all the procedures were based on the Drug Delivery Protocol established by MatTek Corporation (https://www.mattek.com/wp-content/uploads/EpiAirway-Drug-Delivery-Protocol.pdf), and carried out in Absorption Systems LP. Dulbecco’s Phosphate Buffered Saline (DPBS) without Ca^2+ and Mg^2+ (pH 7.4) was used as the assay buffer. […] Radioactivity was 2 µCi/mL for the dosed [^3H] inulin and 0.5 µCi/mL for the dosed [^14C] mannitol. […]
# [2] = In vitro transepithelial transport study across MDCK monolayers; details: dog, pH 7.4
# Experimental: as §1, with “The epithelial Mardi–Darby canine kidney” for “Cells of the human bronchial submucosal gland carcinoma”, “line (MDCK) cells” for “line, Calu-3,”, “Modified α-Eagle Medium” for “DMEM nutrient mixture F-12 HAM”, “[13]. MDCK” for “[21]. Calu-3”, “1.8” for “4.5”, “6–7” for “9–10”
# as §2
# [3] = In vitro transepithelial transport study across MucilAir tissues; details: human, pH 7.4
# in vitro = details: human, Caco-2, pH 7.4
# Experimental: as §3, §2
# [4] = nasal application to rats, AUCn/AUCiv; mean ± S.E.; determined in this study by the same method as ref 11
# Experimental: Under anesthesia by intraperitoneal sodium pentobarbital (50 mg/kg, Nembutal, Abbott Laboratories, Abbott Park, IL, USA), the right femoral artery was cannulated with polyethylene tubing (SP-31, Natsume, Tokyo, Japan) for the collection of blood samples. […] Blood samples were collected from arterial tubing in heparinized tubes at predetermined time intervals for 120 min. The blood was centrifuged to obtain the plasma.
# Under light isoflurane anesthesia, the right femoral artery was cannulated with polyethylene tubing. A drug dissolved in 5 µL of phosphate buffer saline (pH 7.4) was instilled at 1 cm depth from the nostril by microsyringe. Thereafter, animals were kept in a cage (KN-326-III, Natsume, Tokyo, Japan) throughout the experiment. It usually took 5 min after drug instillation for the rat to recover from the anesthesia. Blood samples were collected for 360 min after drug administration. During this period, the animal was allowed free access to water.
# Fractional nasal absorption (Fn) was calculated as follows:Fn = AUCn/AUCiv(2) where AUCn and AUCiv are the area under the concentration–time profile following the nasal and intravenous administration of the drug. AUC was calculated according to the trapezoidal rule up to the last sampling point and extrapolation after the last sampling point.
# MDCK [5] = test system: MDCK; design: method as in PMID 23200901; details: [14C] D-mannitol; cited from the previous report; cited from earlier work
# MucilAir [6] = test system: MucilAir; design: method as in PMID 24216300; details: [3H] mannitol; cited from the previous report; cited from earlier work
# MucilAir [7] = details: pH 7.4
# MDCK [8] = experiment: in vitro; details: pH 7.4
# Experimental: as §1, with “The epithelial Mardi–Darby canine kidney” for “Cells of the human bronchial submucosal gland carcinoma”, “line (MDCK) cells” for “line, Calu-3,”, “Modified α-Eagle Medium” for “DMEM nutrient mixture F-12 HAM”, “[13]. MDCK” for “[21]. Calu-3”, “1.8” for “4.5”, “6–7” for “9–10”
# as §2
# [9] = apical to basal, 10 µM, pH 7.4, 37 °C, up to 60 min, mean ± S.E. of 3–4 experiments, inulin as [14C] inulin, mannitol as [14C] D-mannitol
molecule,measurement,setting,value
inulin,Fractional Absorption (Fn),"[1]; nasal application to rats, AUCn/AUCiv, mean ± S.E., inulin as [14C] inulin, mannitol as [14C] D-mannitol",12.4 ± 2.0 *^1%
same,Permeability (Papp) Calu-3,Calu-3; [9],0.30 ± 0.09 *^1 ×10^−6cm/s
same,Permeability (Papp) Caco-2,Caco-2; [9],0.34 ± 0.20 *^1 ×10^−6cm/s
same,Permeability (Papp) EpiAirway,"EpiAirway; apical to basal, 10 µM, DPBS pH 7.4, 37 °C, up to 60 min, mean ± S.E. of 3–4 experiments, inulin as [3H] inulin, mannitol as [14C] D-mannitol",2.83 ± 0.20 *^2 ×10^−6cm/s
"CN(Cc1cnc2nc(N)nc(N)c2n1)c1ccc(C(=O)N[C@@H](CCC(=O)O)C(=O)O)cc1 [Methotrexate, methotrexate]","Papp at 60 min, 10 µM",[2],0.09 ± 0.03 ×10⁻⁶ cm/s
same,"Papp at 60 min, 10 µM",[3],0.31 ± 0.06 ×10⁻⁶ cm/s
same,"Papp at 60 min, 10 µM",in vitro,0.29 ± 0.02 ×10⁻⁶ cm/s
"Cc1cc(=O)n(-c2ccccc2)n1C [Antipyrine, antipyrine]","Papp at 60 min, 10 µM",[2]; MDCK,32.5 ± 3.71 ×10⁻⁶ cm/s
same,Fractional Absorption (Fn),[4],96.3 ± 4.2%
"C=C[C@H]1C[N@@]2CC[C@H]1C[C@@H]2[C@@H](O)c1ccnc2ccc(OC)cc12 [Quinidine, quinidine]","Papp at 60 min, 10 µM",[2],11.6 ± 1.31 ×10⁻⁶ cm/s
same,"Papp at 60 min, 10 µM",[3],18.6 ± 1.93 ×10⁻⁶ cm/s
"OC[C@@H](O)[C@@H](O)[C@H](O)[C@H](O)CO [Mannitol, mannitol]",Permeability (Papp) MDCK,MDCK [5],"0.18 ± 0.05 *^3,b ×10^−6cm/s"
same,Fractional Absorption (Fn),"[1]; rat, in vivo",52.9 ± 3.4 *^3%
same,Permeability (Papp) MucilAir,MucilAir [6],"0.2 ± 0.0 *^4,c ×10^−6cm/s"
same,"Papp at 60 min, 10 µM",in vitro,0.92 ± 0.15 ×10⁻⁶ cm/s
"Nc1nc2c(ncn2COCCO)c(=O)[nH]1 [Acyclovir, acyclovir]","Papp at 60 min, 10 µM",[2],0.61 ± 0.23 ×10⁻⁶ cm/s
same,"Papp at 60 min, 10 µM",[3],0.48 ± 0.05 ×10⁻⁶ cm/s
same,"Papp at 60 min, 10 µM",in vitro,1.29 ± 0.28 ×10⁻⁶ cm/s
"Nc1ccc(S(=O)(=O)O)cc1 [Sulfanilic acid, sulfanilic acid]",Permeability (Papp) MucilAir,MucilAir [7],0.58 ± 0.15 ×10^−6cm/s
same,Fractional Absorption (Fn),"[1]; rat, in vivo",82.7 ± 9.0%
same,Permeability (Papp) Calu-3,Calu-3; pH 7.4,0.75 ± 0.05 ×10^−6cm/s
same,Permeability (Papp) MDCK,MDCK [8],0.43 ± 0.04 ×10^−6cm/s
same,Permeability (Papp) Caco-2,"Caco-2; Caco-2, pH 7.4",0.58 ± 0.14 ×10^−6cm/s
same,Permeability (Papp) EpiAirway,EpiAirway; pH 7.4,2.78 ± 0.40 ×10^−6cm/s
